Results as given in the NIST ThermoML archive (doi:10.1016/j.jct.2007.10.010).

Key:
[1] = 101 kPa, Liquid
[2] = refractive index (Na D-line) (dimensionless); conditions: 298.15 K; 101.33 kPa; Liquid; Standard Abbe refractometry
[3] = xn = mol fraction of the nth substance listed; conditions: 101 kPa, Liquid

Cc1ccccc1 [toluene]
[1]
Conditions	mass density [kg/m3]
298.15 K	862.29
308.15 K	852.86
318.15 K	843.6
328.15 K	834.29

Conditions	refractive index
[2]	1.4941

CCCCCCCC [octane] + Cc1cc(C)cc(C)c1
[3], x1 = 1
Conditions	mass density [kg/m3]
298.15 K	698.62
308.15 K	690.45
318.15 K	682.49
328.15 K	674.54

Cc1cc(C)cc(C)c1 [1,3,5-trimethylbenzene]
[1]
Conditions	mass density [kg/m3]
298.15 K	861.13
308.15 K	852.89
318.15 K	844.78
328.15 K	836.65

Conditions	refractive index
[2]	1.4967

Cc1ccccc1 [toluene] + CCCCCCCC
[3], x2 = 0
Conditions	mass density [kg/m3]
298.15 K	862.29
308.15 K	852.86
318.15 K	843.6
328.15 K	834.29

Cc1cccc(C)c1 [1,3-dimethylbenzene] + CCCCCCCC
[3]
Conditions	mass density [kg/m3]
298.15 K, x2 = 0	859.85
298.15 K, x2 = 0.06642	845.86
298.15 K, x2 = 0.1397	831.1
298.15 K, x2 = 0.2052	818.49
298.15 K, x2 = 0.276	805.42
298.15 K, x2 = 0.323	797.05
298.15 K, x2 = 0.3982	784.13
298.15 K, x2 = 0.4618	773.65
298.15 K, x2 = 0.5432	760.8
298.15 K, x2 = 0.5993	752.28
298.15 K, x2 = 0.6755	741.14
298.15 K, x2 = 0.7284	733.68
298.15 K, x2 = 0.7851	725.91
298.15 K, x2 = 0.8583	716.27
298.15 K, x2 = 0.925	707.79
308.15 K, x2 = 0	851.2
308.15 K, x2 = 0.06642	837.23
308.15 K, x2 = 0.1397	822.5
308.15 K, x2 = 0.2052	809.92
308.15 K, x2 = 0.276	796.89
308.15 K, x2 = 0.323	788.53
308.15 K, x2 = 0.3954	776.12
308.15 K, x2 = 0.4618	765.21
308.15 K, x2 = 0.5432	752.4
308.15 K, x2 = 0.5993	743.9
308.15 K, x2 = 0.6755	732.79
308.15 K, x2 = 0.7284	725.36
308.15 K, x2 = 0.7851	717.64
308.15 K, x2 = 0.8583	708.01
308.15 K, x2 = 0.925	699.57
318.15 K, x2 = 0	842.66
318.15 K, x2 = 0.0687	828.23
318.15 K, x2 = 0.1168	818.54
318.15 K, x2 = 0.207	801.13
318.15 K, x2 = 0.2651	790.45
318.15 K, x2 = 0.3289	779.13
318.15 K, x2 = 0.4087	765.6
318.15 K, x2 = 0.4672	756.08
318.15 K, x2 = 0.5321	745.88
318.15 K, x2 = 0.6067	734.61
318.15 K, x2 = 0.6634	726.39
318.15 K, x2 = 0.7288	717.2
318.15 K, x2 = 0.7923	708.59
318.15 K, x2 = 0.8634	699.33
318.15 K, x2 = 0.9502	688.48
328.15 K, x2 = 0	834.13
328.15 K, x2 = 0.0687	819.75
328.15 K, x2 = 0.1168	810.1
328.15 K, x2 = 0.207	792.73
328.15 K, x2 = 0.2651	782.09
328.15 K, x2 = 0.3289	770.81
328.15 K, x2 = 0.4087	757.32
328.15 K, x2 = 0.4672	747.81
328.15 K, x2 = 0.5287	738.2
328.15 K, x2 = 0.6067	726.45
328.15 K, x2 = 0.6634	718.26
328.15 K, x2 = 0.7288	709.11
328.15 K, x2 = 0.7923	700.55
328.15 K, x2 = 0.8634	691.33
328.15 K, x2 = 0.9502	680.52
